From patent publication US9884839B2, “Inhibitors of 17Beta-hydroxysteroid dehydrogenases type 1 and type 2” (ElexoPharm GmbH, priority 2014, dated 2018)
Where “and” joins values, the source holds several entries; their conditions need not be identical. Equal values may be shown once. Read-outs that look alike come from different tables or passages of the source.

How the values were obtained:
[1] = target: T1, rat 17β-HSD2 (Rattus norvegicus, UniProt Q62730); assay: Inhibition of rat 17β-HSD2 (liver microsomal fraction); format: biochemical
T1 construct: The pellet fractions containing the microsomal 17β-HSD2 were used for the determination of E1 formation; from tissue; host or cells: rat liver, microsomal fraction
T1 sequence (Q62730 1-381): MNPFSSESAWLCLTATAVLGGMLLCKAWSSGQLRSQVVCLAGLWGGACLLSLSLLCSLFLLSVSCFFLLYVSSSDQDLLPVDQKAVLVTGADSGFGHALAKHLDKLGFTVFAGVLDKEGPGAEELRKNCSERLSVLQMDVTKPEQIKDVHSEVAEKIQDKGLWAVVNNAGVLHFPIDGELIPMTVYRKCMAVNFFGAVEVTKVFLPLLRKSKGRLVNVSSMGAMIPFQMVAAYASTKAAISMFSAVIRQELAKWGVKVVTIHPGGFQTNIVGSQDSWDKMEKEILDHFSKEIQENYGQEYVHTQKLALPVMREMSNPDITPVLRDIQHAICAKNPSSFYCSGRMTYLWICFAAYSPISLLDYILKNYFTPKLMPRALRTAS

[2] = target: T2, human 17β-HSD1 (Homo sapiens, UniProt P14061); assay: Inhibition of human 17β-HSD1 (conversion of [3H]-E1 to E2, HPLC radioflow detection); format: biochemical; conditions: for inhibition at 0.1 µM: read-out: % inhibition h17β-HSD1 @ 100 nM, compound 100 nM; for inhibition at 1 µM: read-out: % inhibition h17β-HSD1 @ 1 μM
T2 construct: For the partial purification of 17β-HSD1, the cytosolic fraction was precipitated with ammonium sulfate; from tissue; host or cells: human placenta, cytosolic fraction, ammonium sulfate precipitate
T2 sequence (P14061 1-328): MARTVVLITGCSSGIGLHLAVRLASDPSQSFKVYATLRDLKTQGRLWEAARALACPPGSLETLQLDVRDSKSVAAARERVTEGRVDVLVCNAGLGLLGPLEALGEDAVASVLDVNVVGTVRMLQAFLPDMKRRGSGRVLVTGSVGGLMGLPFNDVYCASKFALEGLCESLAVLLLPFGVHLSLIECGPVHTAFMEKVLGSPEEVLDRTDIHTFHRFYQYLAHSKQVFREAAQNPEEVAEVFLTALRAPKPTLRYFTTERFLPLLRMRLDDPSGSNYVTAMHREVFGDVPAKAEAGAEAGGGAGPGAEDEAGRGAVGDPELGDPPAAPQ

[3] = target: T3, mouse 17β-HSD1 (Mus musculus, UniProt P51656); assay: Inhibition of mouse 17β-HSD1 (recombinant, HEK293 lysate); format: biochemical
T3 construct: made in house; host or cells: HEK293 cells, transient transfection; 1,000 g supernatant of the cell lysate
T3 sequence (P51656 1-344): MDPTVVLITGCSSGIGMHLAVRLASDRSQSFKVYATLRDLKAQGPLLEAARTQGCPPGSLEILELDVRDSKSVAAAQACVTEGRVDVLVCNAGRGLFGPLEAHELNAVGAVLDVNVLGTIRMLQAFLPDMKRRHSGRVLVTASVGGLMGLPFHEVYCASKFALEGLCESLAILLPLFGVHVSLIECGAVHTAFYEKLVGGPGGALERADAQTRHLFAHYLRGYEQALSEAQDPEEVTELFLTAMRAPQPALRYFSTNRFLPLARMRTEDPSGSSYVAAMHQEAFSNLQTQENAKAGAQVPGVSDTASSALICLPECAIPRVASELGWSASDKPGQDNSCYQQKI

[4] = target: T4, mouse 17β-HSD2 (Mus musculus, UniProt P51658); assay: Inhibition of mouse 17β-HSD2 (liver microsomal fraction); format: biochemical; conditions: for IC50: read-out: IC50 m17β-HSD2
T4 construct: The pellet fractions containing the microsomal 17β-HSD2 were used for the determination of E1 formation; from tissue; host or cells: mouse liver, microsomal fraction
T4 sequence (P51658 1-381): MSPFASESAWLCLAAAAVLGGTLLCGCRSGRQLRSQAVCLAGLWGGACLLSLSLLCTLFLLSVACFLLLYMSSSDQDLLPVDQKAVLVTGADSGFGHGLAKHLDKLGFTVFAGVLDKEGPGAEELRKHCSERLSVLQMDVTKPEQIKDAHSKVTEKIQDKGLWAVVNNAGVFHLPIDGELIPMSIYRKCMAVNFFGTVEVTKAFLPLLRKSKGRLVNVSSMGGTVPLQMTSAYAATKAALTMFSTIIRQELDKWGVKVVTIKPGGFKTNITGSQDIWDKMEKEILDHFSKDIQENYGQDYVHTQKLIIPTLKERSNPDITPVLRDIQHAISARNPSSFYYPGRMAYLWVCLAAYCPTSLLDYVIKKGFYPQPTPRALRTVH

[5] = target: T5, rat 17β-HSD1 (Rattus norvegicus, UniProt P51657); assay: Inhibition of rat 17β-HSD1 (recombinant, HEK293 lysate); format: biochemical; conditions: for inhibition at […] / % Inhibition r17β-HSD1: Cmpd conc. 250 nM
T5 construct: made in house; host or cells: HEK293 cells, transient transfection; 1,000 g supernatant of the cell lysate
T5 sequence (P51657 1-344): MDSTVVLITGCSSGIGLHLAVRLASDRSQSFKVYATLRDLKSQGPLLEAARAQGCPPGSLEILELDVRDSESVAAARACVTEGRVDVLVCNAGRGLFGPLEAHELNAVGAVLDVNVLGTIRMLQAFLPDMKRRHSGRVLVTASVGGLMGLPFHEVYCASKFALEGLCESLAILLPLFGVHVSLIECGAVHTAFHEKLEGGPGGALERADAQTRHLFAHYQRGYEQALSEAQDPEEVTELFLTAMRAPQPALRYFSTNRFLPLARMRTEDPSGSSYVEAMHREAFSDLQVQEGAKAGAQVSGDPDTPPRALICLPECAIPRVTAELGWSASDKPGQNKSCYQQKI

[6] = target: T6, human 17β-HSD2 (Homo sapiens, UniProt P37059); assay: Inhibition of human 17β-HSD2 (conversion of [3H]-E2 to E1); format: biochemical; conditions: for IC50: read-out: IC50 [nM] h17β-HSD2; for inhibition at 1 µM: read-out: % inhibition h17β-HSD2 @ 1 μM
T6 construct: 17β-HSD2 was obtained from the microsomal fraction; from tissue; host or cells: human placenta, microsomal fraction
T6 sequence (P37059 1-387): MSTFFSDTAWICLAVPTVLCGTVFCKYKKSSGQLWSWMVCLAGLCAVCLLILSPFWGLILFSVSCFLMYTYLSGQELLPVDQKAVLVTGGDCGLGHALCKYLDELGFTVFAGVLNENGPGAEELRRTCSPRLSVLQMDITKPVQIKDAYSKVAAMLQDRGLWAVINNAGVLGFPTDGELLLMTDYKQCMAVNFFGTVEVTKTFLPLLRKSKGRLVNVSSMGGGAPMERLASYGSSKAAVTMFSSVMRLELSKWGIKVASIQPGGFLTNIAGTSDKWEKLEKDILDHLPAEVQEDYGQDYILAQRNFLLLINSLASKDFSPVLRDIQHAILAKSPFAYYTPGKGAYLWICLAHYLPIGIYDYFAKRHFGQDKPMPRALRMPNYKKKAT

[7] = human liver S9, 1 mg/mL; unit not given
[8] = in vitro; conditions: human, pooled human liver S9 fraction
[9] = read-out: % Inhibition r17β-HSD2
[10] = read-out: % inhibition m17β-HSD1 @ 1 μM
[11] = read-out: % inhibition m17β-HSD2 @ 1 μM
[12] = read-out: % Inhibition r17β-HSD1
[13] = human placental cytosolic enzyme, E1 500 nM, NADH, Tables 1, 4-11, read-out: IC50 [nM] h17β-HSD1
[14] = read-out: Inhibition @ 1 μM m17β-HSD1
[15] = Tables 4 and 6, no % sign and concentration not given, Table 1 lists these compounds as inhibition @ 1 μM, read-out: IC50 [nM] or % inhibition m17β-HSD1 (bare number, kind not marked)
[16] = read-out: Inhibition @ 1 μM m17β-HSD2

| Structure (SMILES) | inhibition at […] [1, 9] [%] | inhibition at 1 µM [3, 10] [%] | inhibition at […] [5, 12] [%] | IC50 [2, 13] [nM] | inhibition at 1 µM [3, 14] [%] | inhibition at 1 µM [4, 16] [%] | IC50 [6] [nM] | also measured |
| --- | --- | --- | --- | --- | --- | --- | --- | --- |
| O=C(c1ccc(Br)s1)c1c(F)ccc(O)c1F [Compound 1e, (5-Bromo-thiophen-2-yl)-(2,6-difluoro-3-hydroxy-phenyl)-methanone] | 60 | 5 | 5 |  |  |  |  | inhibition at 0.1 µM [2]: 85%; inhibition at 1 µM [4, 11]: 80%; inhibition at 0.1 µM ([6]; read-out: IC50 [nM] or % inhibition h17β-HSD1 (second column so headed, Table 9): % @ 100 nM): 71% |
| O=C(c1ccc(-c2cccc(NS(=O)(=O)c3ccccc3OC(F)(F)F)c2)s1)c1cc(F)c(F)c(O)c1F [Compound 37, N-{3-[5-(2,4,5-Trifluoro-3-hydroxybenzoyl)thiophen-2-yl]phenyl}-2-trifluoromethoxybenzenesulfonamide] | 93 | 55 | 29 | 5.8 | 55 |  |  | IC50 [4]: 79 nM and 22 nM |
| O=C(c1ccc(-c2cccc(NS(=O)(=O)c3ccccc3C(F)(F)F)c2)s1)c1cc(F)c(F)c(O)c1F [Compound 38, N-{3-[5-(2,4,5-Trifluoro-3-hydroxybenzoyl)thiophen-2-yl]phenyl}-2-trifluoromethylbenzenesulfonamide] | 96 | 81 | 41 |  | 81 |  |  | IC50 [2]: 4.8 nM |
| O=C(c1ccc(-c2cccc(NS(=O)(=O)c3ccc(Br)cc3OC(F)(F)F)c2)s1)c1cc(F)c(F)c(O)c1F [Compound 36, 4-Bromo-N-{3-[5-(2,4,5-trifluoro-3-hydroxybenzoyl)thiophen-2-yl]phenyl}-2-trifluoromethoxybenzenesulfonamide] | 100 | 68 | 50 |  | 68 |  |  | IC50 [2]: 2.4 nM |
| Nc1cccc(-c2ccc(C(=O)c3cc(F)c(F)c(O)c3F)s2)c1 [Compound 35, [5-(3-Aminophenyl)thiophen-2-yl](2,4,5-trifluoro-3-hydroxyphenyl)methanone] | 100 |  | 46 | 49 | 9 | 80 | 5 | inhibition at 1 µM [3, 15]: 13%; IC50 [4]: 177 nM |
| O=C(c1ccc(-c2ccc(F)cc2F)s1)c1cccc(O)c1F [C, reference compound] | 20 | 18 | 35 |  |  |  |  | inhibition at 0.1 µM [2]: 92%; inhibition at 1 µM [4, 11]: 75%; inhibition at 0.1 µM ([6]; read-out: % inhibition h17β-HSD2 @ 100 nM): 87% |
| O=C(c1ccc(-c2ccc(O)c(Cl)c2)s1)c1c(F)ccc(O)c1F [Compound 20, [5-(3-Chloro-4-hydroxy-phenyl)-thiophen-2-yl]-(2,6-difluoro-3-hydroxy-phenyl)-methanone] |  | 50 |  | 0.5 | 50 | 82 | 20 | inhibition at 0.5 µM [1, 9]: 98%; inhibition at 1 µM [4, 11]: 95%; inhibition at 0.5 µM ([5]; Cmpd conc. 500 nM, read-out: % Inhibition r17β-HSD1): 48% |
| O=C(c1ccc(-c2cc(Cl)c(O)c(Cl)c2)s1)c1c(F)ccc(O)c1F [Compound 23, [5-(3,5-Dichloro-4-hydroxy-phenyl)-thiophen-2-yl]-(2,6-difluoro-3-hydroxy-phen-yl)-methanone] |  |  |  |  | 23 |  | 39 | CLint [7]: 5.4; half-life at 1 µM [8]: 2.16 h; IC50 ([2]; read-out: IC50 [nM] h17β-HSD1): 2.4 nM; IC50 [4]: 209 nM; inhibition at 5 µM ([5]; Cmpd conc. 5000 nM, read-out: % Inhibition r17β-HSD1): 59% |
| COc1ccc(-c2ccc(C(=O)c3c(F)ccc(O)c3F)s2)cc1S(=O)(=O)N1CCOCC1 [Compound 19, (2,6-Difluoro-3-hydroxy-phenyl)-{5-[4-methoxy-3-(morpholine-4-sulfonyl)-phen-yl]-thiophen-2-yl}-methanone] |  |  | 26 |  | 58 | 44 |  | % Inhibition r17β-HSD2 [1]: n.i.^c; inhibition at 1 µM [2]: 79%; inhibition at 1 µM [6]: 85% |
| CC(=O)N1CCN(Cc2cc(-c3ccc(C(=O)c4c(F)ccc(O)c4F)s3)cc(Cl)c2O)CC1 [Compound 29, 1-(4-{3-Chloro-5-[5-(2,6-difluoro-3-hydroxy-benzoyl)-thiophen-2-yl]-2-hydroxy-benzyl}-piperazin-1-yl)-ethanone] |  |  |  |  | 16 | 40 | 11 | % Inhibition r17β-HSD2 [1]: n.i.^c; IC50 ([2]; read-out: IC50 [nM] h17β-HSD1): 2.1 nM; % Inhibition r17β-HSD1 [5]: n.i.^c |
| O=C(c1ccc(-c2ccc(F)cc2F)s1)c1c(F)ccc(O)c1F [Compound 10, (2,6-Difluoro-3-hydroxy-phenyl)-[5-(2,4-difluoro-phenyl)-thiophen-2-yl]-methan-one] | 66 |  | 63 | 3.5 | 41 | 67 |  | inhibition at 1 µM [3, 15]: 41% |
| O=C(c1ccc(-c2cc(Cl)c(O)c(Cn3ccnn3)c2)s1)c1c(F)ccc(O)c1F [Compound 32, [5-(3-Chloro-4-hydroxy-5-[1,2,3]triazol-1-ylmethyl-phenyl)-thiophen-2-yl]-(2,6-difluoro-3-hydroxy-phenyl)-methanone] | 66 |  |  |  |  |  |  | inhibition at 1 µM [2]: 37%; Inhibition @ 1 μM m17β-HSD1 ([3]; compound 1 μM, Table 1, bare numbers): n.i.^c; % Inhibition r17β-HSD1 [5]: n.i.^c; inhibition at 1 µM [6]: 30% |
